Test results: patent US20200246314A1, “DYSLIPIDEMIA THERAPEUTIC AGENT” (KOWA COMPANY, LTD., priority 2014, published 2020)

System: LDL-C in plasma
Experiment: Effect on LDL-C of rat in combination use of compound A and niacin
Format: in vivo
Settings: male SD rats, oral once per day for one week, blood 4 h after final administration; single agent: compound A 0.1 mg/kg or nicotinic acid 100 mg/kg
Text: Male rats (6-week-old, Jcl:SD, CLEA Japan, Inc.) were used for an experiment. Blood was collected from the jugular vein under satiation. The rats were divided into four groups (N=8) based on TG and TC in plasma and a body weight. For one week from the next day, each of a solvent (0.5% methylcellulose aqueous solution: MC), compound A alone, nicotinic acid alone, and combination of compound A and nicotinic acid was orally administered once per day. Four hours after final administration of the pharmaceutical agent, blood was collected under isoflurane anesthesia, and LDL-C in plasma was measured using high performance liquid chromatography by a method of Usui et al (Usui S et al. Clin Chem., 46, 63-72, 2000). Group 1: Control Group 2: 0.1 mg/kg of compound A […] Group 4: 0.1 mg/kg of compound A and 100 mg/kg of nicotinic acid Results were presented by an average value±standard deviation. Comparison between the control group and each of the pharmaceutical agent administration groups was performed by a multiple comparison test of Dunnett, and a risk rate of less than 5% was determined to have a significant difference.

| Compound | effect on LDL-C in plasma |
| --- | --- |
| CC[C@@H](Oc1cccc(CN(CCCOc2ccc(OC)cc2)c2nc3ccccc3o2)c1)C(=O)O [Compound A, (R)-2-[3-[[N-(benzoxazol-2-yl)-N-3-(4-methoxyphenoxy)propyl]aminomethyl]phenoxy] butyric acid] | did not exhibit a clear effect on LDL-C |
| O=C(O)c1cccnc1 [nicotinic acid, pyridine-3-carboxylic acid] | did not exhibit a clear effect on LDL-C |
